Patent US8735364B2, “Antisense modulation of apolipoprotein B expression” (Genzyme Corporation, priority 2001, dated 2014)
Oligonucleotides are written 5' to 3', each unit as a sugar letter and its base; * is a phosphorothioate linkage, no mark a phosphodiester; rarer units and linkages stand in square brackets, end groups in braces. Plain capitals give the bases only. e = 2'-O-(2-methoxyethyl) (MOE); [5mC] = 5-methylcytosine; d = 2'-deoxy (DNA)

Assays:
[1] = test system: human apolipoprotein B mRNA; experiment: Inhibition of human apolipoprotein B mRNA levels in HepG2 cells, quantitative real-time PCR; assay type: cell-based; design: %INHIB of human apolipoprotein B mRNA levels: concentration or dose not given beside the values; details: for %INHIB of human apolipoprotein B mRNA levels: averages from two experiments
Description: The human hepatoblastoma cell line HepG2 was obtained from the American Type Culture Collection (Manassas, Va.). HepG2 cells were routinely cultured in Eagle's MEM supplemented with 10% fetal calf serum, non-essential amino acids, and 1 mM sodium pyruvate (Gibco/Life Technologies, Gaithersburg, Md.). Cells were routinely passaged by trypsinization and dilution when they reached 90% confluence. Cells were seeded into 96-well plates (Falcon-Primaria #3872) at a density of 7000 cells/well for use in RT-PCR analysis.
When cells reached 80% confluency, they were treated with oligonucleotide. For cells grown in 96-well plates, wells were washed once with 200 μL OPTI-MEM™-1 reduced-serum medium (Gibco BRL) and then treated with 130 μL of OPTI-MEM™-1 containing 3.75 μg/mL LIPOFECTIN™ (Gibco BRL) and the desired concentration of oligonucleotide. After 4-7 hours of treatment, the medium was replaced with fresh medium. Cells were harvested 16-24 hours after oligonucleotide treatment.
Quantitation of apolipoprotein B mRNA levels was determined by real-time quantitative PCR using the ABI PRISM™ 7700 Sequence Detection System (PE-Applied Biosystems, Foster City, Calif.) according to manufacturer's instructions. This is a closed-tube, non-gel-based, fluorescence detection system which allows high-throughput quantitation of polymerase chain reaction (PCR) products in real-time. As opposed to standard PCR, in which amplification products are quantitated after the PCR is completed, products in real-time quantitative PCR are quantitated as they accumulate. This is accomplished by including in the PCR reaction an oligonucleotide probe that anneals specifically between the forward and reverse PCR primers, and contains two fluorescent dyes. A reporter dye (e.g., JOE, FAM, or VIC, obtained from either Operon Technologies Inc., Alameda, Calif. or PE-Applied Biosystems, Foster City, Calif.) is attached to the 5′ end of the probe and a quencher dye (e.g., TAMRA, obtained from either Operon Technologies Inc., Alameda, Calif. or PE-Applied Biosystems, Foster City, Calif.) is attached to the 3′ end of the probe. When the probe and dyes are intact, reporter dye emission is quenched by the proximity of the 3′ quencher dye. During amplification, annealing of the probe to the target sequence creates a substrate that can be cleaved by the 5′-exonuclease activity of Taq polymerase. […] With each cycle, additional reporter dye molecules are cleaved from their respective probes, and the fluorescence intensity is monitored at regular intervals by laser optics built into the ABI PRISM™ 7700 Sequence Detection System. In each assay, a series of parallel reactions containing serial dilutions of mRNA from untreated control samples generates a standard curve that is used to quantitate the percent inhibition after antisense oligonucleotide treatment of test samples.
PCR reagents were obtained from PE-Applied Biosystems, Foster City, Calif. RT-PCR reactions were carried out by adding 25 μL PCR cocktail (1× TAQMAN™ buffer A, 5.5 mM MgCl2, 300 μM each of DATP, dCTP and dGTP, 600 μM of dUTP, 100 nM each of forward primer, reverse primer, and probe, 20 Units RNAse inhibitor, 1.25 Units AMPLITAQ GOLD™, and 12.5 Units MuLV reverse transcriptase) to 96 well plates containing 25 μL total RNA solution. The RT reaction was carried out by incubation for 30 minutes at 48° C. Following a 10 minute incubation at 95° C. to activate the AMPLITAQ GOLD™, 40 cycles of a two-step PCR protocol were carried out: 95° C. for 15 seconds (denaturation) followed by 60° C. for 1.5 minutes (annealing/extension).
Gene target quantities obtained by real time RT-PCR are normalized using either the expression level of GAPDH, a gene whose expression is constant, or by quantifying total RNA using RiboGreen™ (Molecular Probes, Inc. Eugene, Oreg.). GAPDH expression is quantified by real time RT-PCR, by being run simultaneously with the target, multiplexing, or separately. […]

[2] = Liver enzyme levels in ApoE knockout mice; assay type: in vivo, mouse
Excerpt: Female ApoE knockout mice ranged in age from 5 to 7 weeks and were placed on a normal diet for 2 weeks before study initiation. ApoE knockout mice were then fed ad libitum a 60% fat diet, with 0.15% added cholesterol to induce dyslipidemia and obesity. […]
At study termination and forty eight hours after the final injections, animals were sacrificed and evaluated for target mRNA levels in liver by RT-PCR methods verified by Northern Blot analysis, glucose levels, cholesterol and lipid levels by HPLC separation methods and triglyceride and liver enzyme levels (perfomed by LabCorp Preclinical Services; San Diego, Calif.). Data are normalized to saline controls.

[3] = Serum AST and ALT levels, high fat fed mice, 6 week study; assay type: in vivo, mouse; details: daily oral dose of 20 mg/kg
Description: (§1) Male C57BL/6 mice (n=8) receiving a high fat diet (60% kcal fat) were evaluated over the course of 6 weeks for the effects of treatment with the antisense oligonucleotide, ISIS 147764. Control animals received saline treatment (50 mg/kg). A subset of animals received a daily oral dose (20 mg/kg) atorvastatin calcium (Lipitor®, Pfizer Inc.). All mice, except atorvastatin-treated animals, were dosed intraperitoneally every three days (twice a week), after fasting overnight, with 5, 25, 50 mg/kg ISIS 147764 (SEQ ID No: 109) or saline (50 mg/kg) for six weeks. Serum cholesterol and lipoproteins were analyzed at 0, 2 and 6 week interim timepoints. At study termination, animals were sacrificed 48 hours after the final injections and evaluated for levels of target mRNA levels in liver, cholesterol, lipoprotein, triglyceride, liver enzyme (AST and ALT) and serum glucose levels as well as body, liver, spleen and fat pad weights.
Male C57BL/6 mice (n=8) receiving a high fat diet (60% kcal fat) were evaluated over the course of 6 weeks for the effects of ISIS 147764 on liver enzyme (AST and ALT) levels. Control animals received saline treatment (50 mg/kg). Mice were dosed intraperitoneally every three days (twice a week), after fasting overnight, with 5, 25, 50 mg/kg ISIS 147764 (SEQ ID No: 109) or saline (50 mg/kg) for six weeks.
Values in the table are expressed as IU/L. Increased levels of the liver enzymes ALT and AST indicate toxicity and liver damage.

[4] = Body, spleen, liver and fat pad weight, high fat fed mice, 6 week study; assay type: in vivo, mouse; details: 20 mg/kg daily, compared to saline-treated controls
Description: as §1
Male C57BL/6 mice (n=8) receiving a high fat diet (60% kcal fat) were evaluated over the course of 6 weeks for the effects of ISIS 147764 on body, spleen, liver and fat pad weight. Control animals received saline treatment (50 mg/kg). Mice were dosed intraperitoneally every three days (twice a week), after fasting overnight, with 5, 25, 50 mg/kg ISIS 147764 (SEQ ID No: 109) or saline (50 mg/kg) for six weeks.
At study termination, animals were sacrificed 48 hours after the final injections and body, spleen, liver and fat pad weights were measured. Values are expressed as percent change in body weight or ogan weight compared to the saline-treated control animals. Data from mice treated with atorvastatin at a daily dose of 20 mg/kg are also shown in the table Negative values indicated a decrease in weight.

147820 (antisense eG*eA*eA*e[5mC]*eA*d[5mC]*dA*dT*dA*dG*d[5mC]*d[5mC]*dG*dA*dA*eT*eG*e[5mC]*e[5mC]*eG) [compound 147820]
Percent Inhibition of human apolipoprotein B mRNA levels ([1]; 50 nM): 10%
Percent Inhibition of human apolipoprotein B mRNA levels ([1]; 150 nM): 0%
Percent Inhibition of human apolipoprotein B mRNA levels ([1]; 250 nM): 73%
%INHIB of human apolipoprotein B mRNA levels [1]: 100%

147823 (antisense eT*eG*e[5mC]*e[5mC]*e[5mC]*dT*dG*d[5mC]*dA*dG*d[5mC]*dT*dT*d[5mC]*dA*e[5mC]*eT*eG*eA*eA) [compound 147823]
%INHIB of human apolipoprotein B mRNA levels [1]: 19%

147825 (antisense eA*eG*eA*eA*eG*d[5mC]*dT*dG*d[5mC]*d[5mC]*dT*d[5mC]*dT*dT*d[5mC]*eT*eT*e[5mC]*e[5mC]*e[5mC]) [compound 147825]
%INHIB of human apolipoprotein B mRNA levels [1]: 72%

147826 (antisense eT*e[5mC]*eA*eG*eG*dG*dT*dG*dA*dG*d[5mC]*d[5mC]*d[5mC]*dT*dG*eT*eG*eT*eG*eT) [compound 147826]
%INHIB of human apolipoprotein B mRNA levels [1]: 80%

147827 (antisense e[5mC]*eT*eA*eA*eT*dG*dG*d[5mC]*d[5mC]*d[5mC]*d[5mC]*dT*dT*dG*dA*eT*eA*eA*eA*e[5mC]) [compound 147827]
%INHIB of human apolipoprotein B mRNA levels [1]: 13%

147828 (antisense eA*e[5mC]*eG*eT*eT*dA*dT*d[5mC]*d[5mC]*dT*dT*dG*dA*dG*dT*e[5mC]*e[5mC]*e[5mC]*eT*eG) [compound 147828]
%INHIB of human apolipoprotein B mRNA levels [1]: 12%

147829 (antisense eT*eA*eT*eA*eT*d[5mC]*d[5mC]*d[5mC]*dA*dG*dG*dT*dT*dT*d[5mC]*e[5mC]*e[5mC]*e[5mC]*eG*eG) [compound 147829]
%INHIB of human apolipoprotein B mRNA levels [1]: 64%

147831 (antisense e[5mC]*eT*eG*e[5mC]*e[5mC]*dT*dA*d[5mC]*dT*dG*d[5mC]*dA*dA*dG*dG*e[5mC]*eT*eG*eG*e[5mC]) [compound 147831]
%INHIB of human apolipoprotein B mRNA levels [1]: 0%

147833 (antisense eA*eT*eG*eA*eT*dA*d[5mC]*dA*d[5mC]*dA*dA*dT*dA*dA*dA*eG*eA*e[5mC]*eT*e[5mC]) [compound 147833]
%INHIB of human apolipoprotein B mRNA levels [1]: 25%

CC(C)c1c(C(=O)Nc2ccccc2)c(-c2ccccc2)c(-c2ccc(F)cc2)n1CC[C@@H](O)C[C@@H](O)CC(=O)O [atorvastatin, atorvastatin calcium, reference compound]
Liver Enzyme Levels ALT ([2]; 20 mg/kg daily, Control 56): 76 IU/L
Liver Enzyme Levels AST ([2]; Control 55): 75 IU/L
AST levels ([3]; printed in the ALT paragraph): 40 IU/L
AST levels ([3]; saline control 65 IU/L): 85 IU/L
Fat pad weight Percent Change [4]: 7%
Liver weight Percent Change [4]: 15%
Spleen weight Percent Change [4]: 10%
Total Body Wt. Percent Change [4]: 1%
